COc1ccc(P(=O)(c2ccc(OC)cc2)c2ccc(OC)cc2)cc1
Conditions	solubility (mole fraction)
in 2-butanone, 288.15 K	0.00567
in 2-butanone, 293.16 K	0.00642
in 2-butanone, 298.17 K	0.00725
in 2-butanone, 303.18 K	0.00814
in 2-butanone, 308.14 K	0.00907
in 2-butanone, 313.16 K	0.0102
in 2-butanone, 318.17 K	0.0112
in 2-butanone, 323.16 K	0.0125
in 2-butanone, 328.17 K	0.0139
in 2-butanone, 333.16 K	0.0153
in 2-ethoxyethanol, 293.16 K	0.00573
in 2-ethoxyethanol, 298.17 K	0.00716
in 2-ethoxyethanol, 303.18 K	0.00919
in 2-ethoxyethanol, 308.14 K	0.0114
in 2-ethoxyethanol, 313.16 K	0.0143
in 2-ethoxyethanol, 318.17 K	0.0175
in 2-ethoxyethanol, 323.16 K	0.0223
in 2-ethoxyethanol, 328.17 K	0.0276
in 2-ethoxyethanol, 333.17 K	0.033
in 2-ethoxyethanol, 338.25 K	0.0401
in 2-ethoxyethanol, 343.17 K	0.0482
in benzene, 293.16 K	0.00031
in benzene, 298.17 K	0.00039
in benzene, 303.18 K	0.00048
in benzene, 308.14 K	0.00061
in benzene, 313.16 K	0.00076
in benzene, 318.17 K	0.00094
in benzene, 323.16 K	0.00112
in cyclohexane, 298.15 K	0.00053
in cyclohexane, 304.05 K	0.00082
in cyclohexane, 308.32 K	0.00113
in cyclohexane, 313.95 K	0.00166
in cyclohexane, 318.45 K	0.00229
in cyclohexane, 323.65 K	0.00322
in cyclohexane, 328.45 K	0.00455
in cyclohexane, 332.85 K	0.00589
in cyclohexane, 337.65 K	0.00806
in diethyl ether, 293.16 K	0.00607
in diethyl ether, 296.17 K	0.00739
in diethyl ether, 299.18 K	0.00929
in diethyl ether, 301.16 K	0.0106
in diethyl ether, 303.15 K	0.0118
in ethanol, 298.25 K	0.00037
in ethanol, 303.75 K	0.00049
in ethanol, 308.05 K	0.00067
in ethanol, 313.35 K	0.00102
in ethanol, 317.75 K	0.00128
in ethanol, 322.35 K	0.00168
in ethanol, 328.15 K	0.00236
in methanol, 293.35 K	0.00019
in methanol, 298.25 K	0.00024
in methanol, 303.15 K	0.00031
in methanol, 308.05 K	0.00042
in methanol, 313.15 K	0.00056
in methanol, 318.15 K	0.00071
in methanol, 322.65 K	0.00098
in toluene, 293.16 K	0.00036
in toluene, 298.17 K	0.00045
in toluene, 303.18 K	0.00055
in toluene, 308.14 K	0.00066
in toluene, 313.16 K	0.00083
in toluene, 318.17 K	0.00099
in toluene, 323.16 K	0.00121
in toluene, 328.17 K	0.00143
in toluene, 333.15 K	0.00169
